Consider nine compounds from patent US11465965B2, “Double-headed protease inhibitor” (UBE INDUSTRIES, LTD., priority 2017, dated 2022).

For series [1], the target named is T1, Human recombinant enteropeptidase (Homo sapiens, UniProt P98073).
T1 construct: purchased BIO Vision Inc. 7529-50
Put plainly: Human enteropeptidase inhibition test. Format: biochemical. The conditions noted are these: read-out: Inhibition rate (enteropeptidase); for inhibition at 0.001 µM: compound concentration 1 nM. In short, it runs like this:
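Recombinant human enteropeptidase in 50 mM tricine pH 8.0, 0.01% Tween 20, 10 mM CaCl2 cleaving 1.5 μM 5FAM/CPQ2-quenched peptide substrate (stock solution concentration). Fluorescence (ex 485/em 535 nm) read 20 min after enzyme addition; % inhibition versus no-compound and no-enzyme controls.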

The test system of a further series is HFD-fed mouse. The series is described as follows: Fecal protein concentration-increasing test by single administration using HFD-fed mouse. It is filed as in vivo. The conditions noted are these: 24 h, HFD-fed mice, vs vehicle group, read-out: Ratio for an increase of protein concentration in feces; for response vs control in vivo at 50 mg/kg: single oral dose 50 mg/kg. From the text:
(Test Example 3): Fecal Protein Concentration-Increasing Test by Single Administration Using HFD-Fed Mouse
High fat diet-fed (HFD-fed) mice (D-12492 diet, male, ICR, 6 week old) were orally administered with a 0.5 W/V % methylcellulose suspension comprising each test compound (Compound administration group, 4 or 5 mice/group) or a 0.5 W/V % methylcellulose suspension (Compound non-administration group (Vehicle group), 5, 6, or 7 mice/group), and whole feces of the day were collected. Dried feces were dissolved into a 0.5N aqueous sodium hydroxide solution, followed by centrifugation at 3500 rpm. Then each protein concentration in the resulting supernatant was determined (Lowry method), and the ratio for an increase of protein concentration in feces was calculated by the following equation using the protein concentration in feces contained in 1 g of feces (mg/g feces). Ratio for an increase of protein concentration in feces−(average protein concentration in feces of Compound administration group)[…](average protein concentration in feces of Compound non-administration group)

A further series has as its system DIO mouse. The series is described as follows: Anti-obesity effect test using DIO mouse. Format: in vivo. Conditions: 336 h, DIO mice, vs vehicle group, read-out: Weight loss rate; for inhibition in vivo at 50 mg/kg: oral 50 mg/kg once daily for 2 weeks. In short, it runs like this: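 Male C57BL-DIO mice on D-12492 diet, 26 to 28-week old, 5 or 6 per group; compound dosed orally once daily for 2 weeks as 0.5 W/V % methylcellulose suspension, vehicle group on suspension alone. Weight loss rate (%) = (1 − mean final-day weight of treated group / mean final-day weight of vehicle group) × 100.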

A short description of series [2]: Rat pharmacokinetic (PK) test (plasma concentration after oral administration). The conditions noted are these: male, SD.
Series [3] concerns the target T2, Human recombinant trypsin (Homo sapiens, UniProt P07477).
T2 construct: purchased Wako Pure Chemical Industries, Ltd. 206-17171
Put plainly: Human trypsin inhibition test. Format: biochemical. Conditions: 20 minutes after reaction start, read-out: Inhibition rate (trypsin); for inhibition at 0.01 µM: compound concentration 10 nM; for inhibition at 0.1 µM: compound concentration 100 nM; for inhibition at 0.001 µM: compound concentration 1 nM. In short, it runs like this: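 Trypsin diluted to 10 ng/mL in 0.1 M Tris-HCl pH8.0, 0.15 M NaCl, 10 mM CaCl2, 0.05% Brij35; substrate solution 40 μM Boc-Phe-Ser-Arg-MCA, compounds in 1% DMSO buffer. Fluorescence (ex 355/em 460 nm) read 20 min after enzyme addition; % inhibition versus no-compound and no-enzyme controls.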

The nature of another series: in vivo. Conditions: male, SD, rat, po, 10 mg/kg.
Setting [4] is: compound concentration 10 nM, 20 minutes after reaction start.
Where [5] appears, read: compound concentration 100 nM, 20 minutes after reaction start.
Setting [6] is: 20 minutes after reaction start.

The structures appear in SMILES notation. Counter-ions that a name gives are not always drawn. Like-named read-outs stand apart in the source and are kept apart here.

T1 sequence (P98073 whole entry): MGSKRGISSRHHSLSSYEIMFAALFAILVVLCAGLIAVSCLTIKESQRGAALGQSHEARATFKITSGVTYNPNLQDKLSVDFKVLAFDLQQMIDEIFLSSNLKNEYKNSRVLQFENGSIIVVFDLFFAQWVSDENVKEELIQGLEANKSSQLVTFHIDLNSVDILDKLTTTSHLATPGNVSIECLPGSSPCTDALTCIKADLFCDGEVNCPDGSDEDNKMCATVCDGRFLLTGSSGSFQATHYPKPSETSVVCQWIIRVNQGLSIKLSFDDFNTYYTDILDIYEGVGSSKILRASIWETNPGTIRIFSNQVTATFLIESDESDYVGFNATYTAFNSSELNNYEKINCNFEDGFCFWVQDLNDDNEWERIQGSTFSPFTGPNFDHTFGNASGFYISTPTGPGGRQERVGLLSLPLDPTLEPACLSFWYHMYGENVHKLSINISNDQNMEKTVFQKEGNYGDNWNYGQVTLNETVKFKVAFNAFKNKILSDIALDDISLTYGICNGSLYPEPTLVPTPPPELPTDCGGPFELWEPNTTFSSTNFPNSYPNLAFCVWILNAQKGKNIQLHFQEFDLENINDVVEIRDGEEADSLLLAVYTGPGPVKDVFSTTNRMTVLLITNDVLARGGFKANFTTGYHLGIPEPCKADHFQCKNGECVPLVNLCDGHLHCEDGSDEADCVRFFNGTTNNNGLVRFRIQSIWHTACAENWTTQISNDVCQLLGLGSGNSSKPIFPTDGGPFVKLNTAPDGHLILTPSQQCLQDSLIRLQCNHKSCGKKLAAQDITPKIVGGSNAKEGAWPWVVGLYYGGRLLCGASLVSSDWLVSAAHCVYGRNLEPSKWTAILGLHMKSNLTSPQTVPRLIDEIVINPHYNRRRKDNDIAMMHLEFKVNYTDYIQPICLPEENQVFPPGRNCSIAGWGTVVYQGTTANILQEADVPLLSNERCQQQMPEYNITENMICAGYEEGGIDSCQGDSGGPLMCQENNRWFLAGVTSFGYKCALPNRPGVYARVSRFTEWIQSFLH

As usually defined, the inhibition is the drop in the measured response relative to a control, in per cent. The AUC is concentration integrated over time. Higher therefore signals more exposure. Take `N=C(N)Nc1ccc(C(=O)Oc2ccc(CNS(=O)(=O)N(CCOCCOCCOCCOCCN([C@@H](CC(=O)O)C(=O)O)S(=O)(=O)NCc3ccc(OC(=O)c4ccc(NC(=N)N)cc4)cc3)[C@@H](CC(=O)O)C(=O)O)cc2)cc1` [4-(b), (2S,19S)-3,18-bis(N-(4-((4-guanidinobenzoyl)oxy)benzyl)sulfamoyl)-6,9,12,15-tetraoxa-3,18-diazaicosane-1,2,19,20-tetracarboxylic acid trifluoroacetate]: the inhibition at 0.01 µM in series [1] (setting [4]) and in series [3] was no less than 50% each time. For the same compound, the inhibition at 0.1 µM in series [1] (setting [5]) and in series [3] was no less than 50% throughout. Besides, the response vs control in vivo at 100 mg/kg in the series with HFD-fed mouse (single oral dose 100 mg/kg) was no less than 130%. Besides, the inhibition in vivo at 86 mg/kg with DIO mouse (oral 86 mg/kg once daily for 2 weeks) is no less than 4%. Besides, in series [2] (10 mg/kg), the AUC was no more than 0.1 µg·h/mL.
On to `N=C(N)Nc1ccc(C(=O)Oc2ccc(CNS(=O)(=O)N(CCCN([C@@H](CC(=O)O)C(=O)O)S(=O)(=O)NCc3ccc(OC(=O)c4ccc(NC(=N)N)cc4)cc3)[C@@H](CC(=O)O)C(=O)O)cc2)cc1` [7-(b), (2S,2′)-2,2′-propane-1,3-diylbis((N-(4-((4-guanidinobenzoyl)oxy)benzyl)sulfamoyl)azanediyl)disuccinic acid], for which the inhibition at 0.001 µM in series [1] (setting [6]) and in series [3] was no less than 50% each time. Also, the inhibition at 0.01 µM in series [1] (setting [4]) and in series [3] was no less than 50% each time. In addition, the inhibition at 0.1 µM in series [1] (setting [5]) and in series [3] was no less than 50% throughout. For the same compound, the response vs control in vivo at 30 mg/kg in the series with HFD-fed mouse (single oral dose 30 mg/kg) is no less than 130%. In addition, in the series with DIO mouse (oral 100 mg/kg once daily for 2 weeks), the inhibition in vivo at 100 mg/kg is no less than 4%. The same compound gave an AUC in series [2] (10 mg/kg) of no more than 0.1 µg·h/mL.
Consider `N=C(N)Nc1ccc(C(=O)Oc2ccc(COC(=O)N(CCOCCOCCOCCOCCN(C(=O)OCc3ccc(OC(=O)c4ccc(NC(=N)N)cc4)cc3)C(CC(=O)O)C(=O)O)C(CC(=O)O)C(=O)O)cc2)cc1` (stereo not shown) [10-(b), 3,18-bis(((4-((4-guanidinobenzoyl)oxy)benzyl)oxy)carbonyl)-6,9,12,15-tetraoxa-3,18-diazaicosane-1,2,19,20-tetracarboxylic acid trifluoroacetate], for which the inhibition at 0.01 µM in series [1] (setting [4]) and in series [3] was no less than 50% throughout. Further, the inhibition at 0.1 µM in series [1] (setting [5]) and in series [3] was no less than 50% each time. In addition, the response vs control in vivo at 79 mg/kg in the series on HFD-fed mouse (single oral dose 79 mg/kg) was no less than 130%. Besides, the inhibition in vivo at 87 mg/kg in the series with DIO mouse (oral 87 mg/kg once daily for 2 weeks) is no less than 4%. This compound also registered an AUC in series [2] (8 mg/kg) of no more than 0.1 µg·h/mL.
With `N=C(N)Nc1ccc(C(=O)Oc2ccc(COC(=O)N(Cc3cccc(C(=O)NCCOCCOCCOCCOCCNC(=O)c4cccc(CN(C(=O)OCc5ccc(OC(=O)c6ccc(NC(=N)N)cc6)cc5)[C@@H](CC(=O)O)C(=O)O)c4)c3)[C@@H](CC(=O)O)C(=O)O)cc2)cc1` [17-(b), (2S,2′S)-2,2′-(((5,8,11,14-tetraoxa-2,17-diazaoctadecane-1,18-dioyl)bis(3,1-phenylene))bis(methylene))bis((((4-((4-guanidinobenzoyloxy)benzyloxycarbonyl)azanediyl))disuccinic acid trifluoroacetate], in series [1], the inhibition at 0.01 µM was no less than 50% and the inhibition at 0.1 µM was no less than 50%. Further, in the series with HFD-fed mouse (single oral dose 91 mg/kg), the response vs control in vivo at 91 mg/kg was no less than 130%. Further, the inhibition in vivo at 88 mg/kg in the series on DIO mouse (oral 88 mg/kg once daily for 2 weeks) was no less than 4%. The compound also yielded an AUC in series [2] (9 mg/kg) of no more than 0.1 µg·h/mL. In addition, in series [3], the inhibition at 0.001 µM was no less than 50%, the inhibition at 0.01 µM is no less than 50% and the inhibition at 0.1 µM is no less than 50%.
As to `Cl.N=C(N)Nc1ccc2c(c1)CCCOc1c(cccc1C(=O)N(CCOCCOCCN(C(=O)c1cccc3c1OCCCc1cc(NC(=N)N)ccc1C(=O)O3)[C@@H](CC(=O)O)C(=O)O)[C@@H](CC(=O)O)C(=O)O)OC2=O` [20-(c), (2S,13S)-3,12-bis(10-guanidino-13-oxo-6,7,8,13-tetrahydrodibenzo[b,f][1,4]dioxecin-4-carbonyl)-6,9-dioxa-3,12-diazatetradecane-1,2,13,14-tetracarboxylic acid hydrochloride], in “in vivo”, the AUC was no more than 0.1 µg·h/mL.
In the series “in vivo”, `Cl.N=C(N)Nc1ccc2c(c1)CCCOc1c(cccc1C(=O)N(CCOCCOCCN(C(=O)c1cccc3c1OCCCc1cc(NC(=N)N)ccc1C(=O)O3)[C@H](CC(=O)O)C(=O)O)[C@H](CC(=O)O)C(=O)O)OC2=O` [21-(c), (2R,13R)-3,12-bis(10-guanidino-13-oxo-6,7,8,13-tetrahydrodibenzo[b,f][1,4]dioxecin-4-carbonyl)-6,9-dioxa-3,12-diazatetradecane-1,2,13,14-tetracarboxylic acid hydrochloride] displayed an AUC of no more than 0.1 µg·h/mL.
Regarding `N=C(N)Nc1ccc2c(c1)CCCOc1c(cccc1C(=O)N(CCOCCN(C(=O)c1cccc3c1OCCCc1cc(NC(=N)N)ccc1C(=O)O3)[C@@H](CC(=O)O)C(=O)O)[C@@H](CC(=O)O)C(=O)O)OC2=O` [26-(b), (2S,2′S)-2,2′-((oxybis(ethane-2,1-diyl))bis((10-guanidino-13-oxo-6,7,8,13-tetrahydrodibenzo[b,f][1,4]dioxecin-4-carbonyl)azanediyl))disuccinic acid], the inhibition at 0.001 µM in series [1] (setting [6]) and in series [3] was no less than 50% throughout. The inhibition at 0.01 µM in series [1] (setting [4]) and in series [3] was no less than 50% in each case. Further, the response vs control in vivo at 50 mg/kg in the series with HFD-fed mouse was no less than 130%. Further, in the series on DIO mouse, the inhibition in vivo at 50 mg/kg is no less than 4%. Besides, the AUC in series [2] (10 mg/kg) is no more than 0.1 µg·h/mL.
In the case of `N=C(N)Nc1ccc2c(c1)CCCOc1c(cccc1C(=O)N(Cc1cccc(-c3cccc(CN(C(=O)c4cccc5c4OCCCc4cc(NC(=N)N)ccc4C(=O)O5)[C@@H](CC(=O)O)C(=O)O)c3)c1)[C@@H](CC(=O)O)C(=O)O)OC2=O` [28-(c)], the inhibition at 0.001 µM in series [1] (setting [6]) was no less than 50%. Also, the inhibition at 0.01 µM in series [1] (setting [4]) and in series [3] was no less than 50% throughout. Further, the inhibition at 0.1 µM in series [1] (setting [5]) and in series [3] was no less than 50% throughout. Also, the response vs control in vivo at 50 mg/kg with HFD-fed mouse is no less than 130%. Besides, the inhibition in vivo at 50 mg/kg in the series with DIO mouse is no less than 4%. This compound also had an area under the curve (AUC) in series [2] (10 mg/kg) of no more than 0.1 µg·h/mL.
With `Cl.N=C(N)Nc1ccc2c(c1)CCCOc1c(cccc1C(=O)N(Cc1cc(OCCOCCOc3cc(CN(C(=O)c4cccc5c4OCCCc4cc(NC(=N)N)ccc4C(=O)O5)[C@@H](CC(=O)O)C(=O)O)cc(C(=O)O)c3)cc(C(=O)O)c1)[C@@H](CC(=O)O)C(=O)O)OC2=O` [29-(c), (2S,2′S)-2,2′-(((((oxybis(ethane-2,1-diyl))bis(oxy))bis(3-carboxy-5,1-phenylene))bis(methylene))bis((10-guanidino-13-oxo-6,7,8,13-tetrahydrodibenzo[b,f][1,4]dioxecin-4-carbonyl)azanediyl))disuccinic acid hydrochloride], the inhibition at 0.001 µM in series [1] (setting [6]) is no less than 50%. In addition, in series [1] (setting [4]), the inhibition at 0.01 µM was no less than 50%. The inhibition at 0.1 µM in series [1] (setting [5]) and in series [3] was no less than 50% in each case. Further, the response vs control in vivo at 50 mg/kg with HFD-fed mouse is no less than 130%. Moreover, the inhibition in vivo at 50 mg/kg in the series with DIO mouse was no less than 4%. Besides, the AUC in series [2] (10 mg/kg) was no more than 0.1 µg·h/mL.
